Like-named read-outs stand apart in the source and are kept apart here.
Tests used:
Format in all cases: cell-based
[1] = test system: NCI-H23 (human lung cancer); assay: In vitro cytotoxicity, SRB assay, NCI-H23; details: for IC50: Homo sapiens, NCI-H23, 72 h with compound, SRB, n/a = non-active compound, read-out: NCI-H23 IC50; for NCI-H23 SI: selectivity coefficient vs normal BALB/3T3 cells
[2] = test system: PFSK-1 (malignant primitive neuroectodermal tumour); assay: In vitro cytotoxicity, SRB assay, PFSK-1; details: for IC50: Homo sapiens, PFSK-1, 72 h with compound, SRB, n/a = non-active compound, read-out: PFSK-1 IC50; for PFSK-1 SI: selectivity coefficient vs normal BALB/3T3 cells
[3] = test system: A2780 (human ovarian cancer); assay: In vitro cytotoxicity, SRB assay, A2780; details: for IC50: Homo sapiens, A2780, 72 h with compound, SRB, n/a = non-active compound, read-out: A2780 IC50; for A2780 SI: selectivity coefficient vs normal BALB/3T3 cells
[4] = test system: A2780Cis (cisplatin-resistant human ovarian cancer); assay: In vitro cytotoxicity, SRB assay, A2780Cis; details: for IC50: Homo sapiens, A2780cis
A375 (human melanoma) = assay: In vitro cytotoxicity, SRB assay, A375; details: for IC50: Homo sapiens, A-375, 72 h with compound, SRB, n/a = non-active compound, read-out: A375 IC50; for A375 SI: selectivity coefficient vs normal BALB/3T3 cells
Hs294T (human melanoma) = assay: cells; details: for IC50: Homo sapiens, Hs 294T, 72 h with compound, SRB, n/a = non-active compound, read-out: Hs294T IC50; for Hs294T SI: selectivity coefficient vs normal BALB/3T3 cells
[5] = test system: PLC/PRF/5 (human liver cancer); assay: cells; details: for IC50: Homo sapiens, PLC-PRF-5, 72 h with compound, SRB, n/a = non-active compound, read-out: PLC/PRF/5 IC50; for PLC/PRF/5 SI: selectivity coefficient vs normal BALB/3T3 cells
[6] = test system: SNU-16 (human gastric cancer); assay: cells; details: for IC50: Homo sapiens, SNU-16, 72 h with compound, MTT, n/a = non-active compound, read-out: SNU-16 IC50; for SNU-16 SI: selectivity coefficient vs normal BALB/3T3 cells
[7] = test system: KG-1 (human acute myeloid leukaemia); assay: In vitro cytotoxicity, MTT assay, KG-1; details: for IC50: Homo sapiens, 72 h with compound, MTT, n/a = non-active compound; for KG-1 SI: selectivity coefficient vs normal BALB/3T3 cells
[8] = test system: MIA PaCa-2 (human pancreatic cancer); assay: cells; details: for IC50: Homo sapiens, MIA PaCa-2, 72 h with compound, SRB, n/a = non-active compound, read-out: MIA PaCa-2 IC50; for MIA PaCa-2 SI: selectivity coefficient vs normal BALB/3T3 cells
[9] = test system: BALB/3T3 (normal mouse fibroblasts); assay: In vitro cytotoxicity, SRB assay, normal BALB/3T3 fibroblasts
cancer cells = assay: In vitro cytotoxic activity on the panel of cancer cell lines (MTT/SRB), general statements; details: for anti-proliferative effect compared to that of the parent compound: Tables 3.1, 3.2, 4 and 5, parent compound salinomycin
[10] = 72 h, read-out: A2780Cis IC50 (nM)
[11] = Mus musculus, BALB/3T3, normal cells, 72 h with compound, SRB, n/a = non-active compound, read-out: BALB/3T3 IC50

| SMILES | IC50 [1] [nM] | NCI-H23 SI [1] | IC50 [2] [nM] | PFSK-1 SI [2] | IC50 [3] [nM] | A2780 SI [3] | A2780Cis RI [4] | A2780Cis SI [4] | IC50 [4, 10] [nM] | IC50 (A375 (human melanoma)) [nM] | A375 SI (A375 (human melanoma)) | IC50 (Hs294T (human melanoma)) [nM] | Hs294T SI (Hs294T (human melanoma)) | IC50 [5] [nM] | PLC/PRF/5 SI [5] | IC50 [6] [nM] | SNU-16 SI [6] | IC50 [7] [nM] | KG-1 SI [7] | IC50 [8] [nM] | further results |
| --- | --- | --- | --- | --- | --- | --- | --- | --- | --- | --- | --- | --- | --- | --- | --- | --- | --- | --- | --- | --- | --- |
| CC[C@@H](C(=O)[C@@H](C)[C@@H](O)[C@H](C)[C@@H]1O[C@@H]([C@@H](CC)C(=O)O)CC[C@@H]1C)[C@H]1O[C@]2(C=C[C@@H](NC(=S)Nc3ccc(C(F)(F)F)cc3)[C@]3(CC[C@@](C)([C@H]4CC[C@](O)(CC)[C@H](C)O4)O3)O2)[C@H](C)C[C@@H]1C [FLC-00347-1] | 5.51 | 13.3 | 4.54 | 16.1 | 0.93 | 79.0 | 0.3 | 264.7 | 0.28 | 91.2 | 0.8 | 103 | 0.7 | 5.87 | 12.5 | 13.5 | 5.4 | 14.1 | 5.2 | 44.3 | MIA PaCa-2 SI [8]: 1.7; IC50 [9, 11]: 73.2 nM; anti-proliferative effect compared to that of the parent compound (cancer cells): several times more potent compared to that of the parent compound |
| CCCCCCCCNC(=O)N[C@@H]1C=C[C@]2(O[C@H]([C@@H](CC)C(=O)[C@@H](C)[C@@H](O)[C@H](C)[C@@H]3O[C@@H]([C@@H](CC)C(=O)O)CC[C@@H]3C)[C@@H](C)C[C@H]2C)O[C@@]12CC[C@@](C)([C@H]1CC[C@](O)(CC)[C@H](C)O1)O2 [FLC-00366-1] | 5.78 | 19.8 | 4.53 | 25.3 | 0.9 | 128.0 | 0.2 | 550.8 | 0.21 | 69.4 | 1.7 | 214 | 0.5 | 5.62 | 20.4 | 8.64 | 13.3 | 40.6 | 2.8 | 45 | SI A2780Cis [4]: 550.8; IC50 ([4]; read-out: IC50 (nM) A2780Cis): 0.21 nM; MIA PaCa-2 SI [8]: 2.5; IC50 [9, 11]: 115 nM; IC50 ([9]; Table 5, BALB/3T3 normal mouse fibroblasts, read-out: IC50 (nM) BALB3T3 normal cells): 115 nM; biological properties (IC50, SI) compared to the corresponding epi compounds (cancer cells; table 5 comparative examples, retained vs inverted C20 configuration): improved biological properties compared to their counterparts with a configuration conversion |
| CC[C@@H](C(=O)[C@@H](C)[C@@H](O)[C@H](C)[C@@H]1O[C@@H]([C@@H](CC)C(=O)O)CC[C@@H]1C)[C@H]1O[C@]2(C=C[C@@H](NC(=S)NCCCSC)[C@]3(CC[C@@](C)([C@H]4CC[C@](O)(CC)[C@H](C)O4)O3)O2)[C@H](C)C[C@@H]1C [FLC-00345-1] | 46.5 | 1.5 | 12.3 | 5.6 | 0.84 | 81.2 | 0.8 | 96.6 | 0.71 | 400 | 0.2 | 396 | 0.2 | 28 | 2.4 | 26 | 2.6 | 39.2 | 1.7 | 111 | MIA PaCa-2 SI [8]: 0.6; IC50 [9, 11]: 68.4 nM; anti-proliferative effect compared to that of the parent compound (cancer cells): several times more potent compared to that of the parent compound |

— US20240294541A1, “COMPOUNDS CONSTITUTING C20-MODIFIED SALINOMYCIN DERIVATIVES, A METHOD FOR OBTAINING THE SAME, A COMPOSITION CONTAINING THE SAME AND A USE OF SAID COMPOUNDS” (FILECLO SPOLKA Z OGRANICZONA ODPOWIEDZIALNOSCIA, priority 2021, published 2024)
